Experimental data taken from patent US20230364032A1, “USE OF 2-HOBA TO TREAT ATHEROSCLEROSIS” (Vanderbilt University, priority 2020, published 2023).
“Also recorded” adds a separate entry of the source.

Key:
MDA-HDL = assay: MDA adducts in isolated HDL by ELISA; format: in vivo, mouse; conditions: Ldlr−/− mice
Description: FIGS. 7A-7G show the effects of 2-HOBA on MDA-HDL adducts and HDL function. (7A) The levels or MDA adducts were measured by ELISA in HDL isolated from Ldlr mice treated as described in FIG. 1. Data are presented as mean±SEM (N=8 pet group), *** p<0.001, One-way ANOVA with Bonferroni's post hoc test. (7B) Western blots of apoAl and MDA-apoAl in HDL isolated from plasma by immunoprecipitation using primary anti-apoAl antibody. Ldlf mice were treated as described In FIG. 1 and apoAl and MDA-apoAl from Ldlr mice consuming a chow diet are included f0t comparison. (7C) Quantitation using lmageJ software of the mean density ratio (arbitrary units) of MDA-apoAl to apoAl detected by Western blotting (7B). (7D The HDL was isolated from the plasma of Ld/r-mice consuming a western diet for 16 weeks and treated with 2-HOBA or 4-HOBA or vehicle. Cholesterol enriched macrophages were incubated for 24 h with HDL (25 μg protein/ml). and the % reduction in cellular cholesterol content measured. Data presented as mean±SEM. N=7 per group, *p<0.05.**p<0.01, One-way ANOVA with Bonferroni's post hoc test (7E) The MDA adducts were measured by ELISA in HDL isolated from control or FH subjects before and after LDL apheresis. N=7 or 8, ***p<0.001, One-way ANOVA with Bonferroni's post hoc test. (7F) The MDA-Lysyl crosslink content in HDL from control or FH subjects (n=6 per group), p=0.02, Mann-Whitney test (7G) The capacity of HDL from control or FH subjects pre and post LDL apheresis (n=7 per group) to reduce the cholesterol content of apoE macrophages.
The study was approved by the Vanderbilt University Institutional Review Board (IRB), and all participants gave their written informed consent. The human blood samples from patients with severe FH, who were undergoing LDL apheresis, and healthy controls were obtained using an IRB approved protocol. […] After stopping the reaction, the O.D. was measured at 450 nm wavelength. MDA-ApoAI was detected in mouse plasma by immunoprecipitation of ApoAI and western blotting. […] Proteins were visualized and quantitated by Odyssey 3.0 Quantification software (LI-COR).

[1] = Body weight, water intake, diet consumption, mortality; format: in vivo; conditions: Ldlr−/− mice, western diet 16 weeks, 1 g/L; compared to vehicle or 4-HOBA
Description: The body weight (FIG. 8A), water intake (FIG. 8B), and diet consumption (FIG. 8C) were measured in the Ldlr^−/− mice consuming a Western diet for 16 weeks and treated with 1 g/L 2-HOBA, 4-HOBA, or vehicle. (FIG. 8D) The plasma was pooled from hypercholesterolemic Ldlr^−/− mice (4 mice/group) that were fasted for 6 hours. Fast performance liquid chromatography (FPLC) was performed using a Superose 6 column. Total cholesterol was measured by an enzymatic assay and the average is shown for two pooled plasma samples per group of mice.
Ldlr^−/− and WT on C57BL/6 background mice were obtained from the Jackson Laboratory. Animal protocols were performed according to the regulations of Vanderbilt University's Institutional Animal Care and Usage Committee. Mice were maintained on chow or a Western-type diet containing 21% milk fat and 0.15% cholesterol (Teklad). Eight week old, female Ldlr^−/− mice on a chow diet were pretreated with vehicle alone (Water) or containing either 1 g/L of 4-HOBA or 1 g/L of 2-HOBA. 4-HOBA (as hydrochloride salt) was synthesized as previously described^21. 2-HOBA (as the acetate salt, CAS 1206675-01-5) was manufactured by TSI Co., Ltd. (Missoula, MT) and obtained from Metabolic Technologies, Inc., Ames, IA^24. A commercial production lot was used (Lot 16120312), and the purity of the commercial lot was verified to be >99% via HPLC and NMR spectroscopy^24. […]

## NCc1ccccc1O [2-HOBA, 2-hydroxybenzylamine]
MDA-HDL
  MDA content in HDL: reduced
MDA-HDL; compared to 4-HOBA
  reduction of MDA adduct content of isolated HDL (ELISA): 56%
MDA-HDL; compared to vehicle
  reduction of MDA adduct content of isolated HDL (ELISA): 57%
[1]
  body weight, water consumption, diet uptake: did not affect; also recorded: does not impact
